Where a SMILES comes first, the peptide text is derived from it. Where no end group is shown, it is not given here.
Target: T1, human TNFα (Homo sapiens, UniProt P01375)
T1 construct: purchased Biosource, Camarillo, Calif
Assay: p55 Receptor/IgG Fusion Protein Binding Assay (inhibition of TNFα capture by p55-Ig coated plate)
Conditions: for inhibition at 1000 µM / inhibition of binding of TNFα to p55TNFr-IgG chimeric construct: peptide 1 mM, TNFα 25 ng/ml; for inhibition at 1000 µM: read-out: inhibition of binding of TNFα to p55TNFr-IgG chimeric construct
Experimental: This assay was designed to identify peptides which bind to human TNFα and thereby prevent the capture of the TNFα by a microtiter plate coated with p55-Ig fusion protein. A constant concentration of human TNFα is preincubated with the test peptide and then incubated on the p55-Ig coated microtiter wells. Bound TNFα is detected using a specific antisera and an alkaline phosphatase-conjugated probe.
A 96-well, U-bottom polyvinylchloride microtiter plate was coated with 50 μl/well of p55-Ig fusion protein at 5 μg/ml in 0.01M sodium phosphate, 0.15M sodium chloride (PBS) by incubation overnight at 4° C. or 2 hours at 37° C. The fusion protein, which consists of a p55 TNF receptor protein portion and an IgG portion, can be produced as disclosed in U.S. application Ser. No. 08/010,406 filed Jan. 29, 1993 which is incorporated herein by reference. The plate was washed three times with 0.05% Tween-20 in PBS, then blocked, by adding 150 μl/well of assay buffer (10 mM N-2-hydroxyethylpiperazine-N'-[…] (HEPES) pH 7.2, containing 0.1% porcine gelatin, 0.1% Tween-80, and 0.01% sodium azide) and continuing incubation for 1 hour at 37° C. or at 4° C. for 1-7 days.
Lyophilized peptides to be tested were weighed in tared 12×75 mm polystyrene tubes and reconstituted to a concentration of 1.2 mM with assay buffer. Each suspension was sonicated in a water bath for 1-5 minutes and vortexed 15-30 seconds to disperse large particles. Serial dilutions of each peptide suspension were prepared using assay buffer in a 96-well polystyrene microtiter plate. Additional wells received Fab fragment of the mouse/human monoclonal anti-human TNFα antibody cA2 (positive control) or assay buffer (negative control). […] The polystyrene dilution plate was then sealed and incubated 1 hour at room temperature on an orbital mixer set at moderate speed.
Following the sample preincubation, blocker was discarded from the p55-Ig coated plate and blotted dry. Aliquots (50 μl) of each peptide or control were transferred into duplicate wells on the p55-Ig coated plate which was then sealed and incubated i hour at 37° C. Duplicate wells containing only assay buffer were included as a plate blank. After incubation the p55-Ig plate was washed three times with 0.05% Tween-20 in PBS.
To detect TNFα captured by the p55-Ig plate, all wells were incubated in succession with polyclonal rabbit anti-human TNFα (Genzyme, Boston, Mass.; 1:500 in assay buffer, 50 μl/well), biotinylated goat anti-rabbit Ig (H&L) (Vector Laboratories, Burlingame, Calif.; 1 μg/ml in assay buffer, 50 μl/well) and streptavidin-alkaline phosphatase conjugate (Pierce, Rockford, Ill.; 1 μg/ml in assay buffer, 50 μl/well). All incubations were for 1 hour at 37° C. and after each incubation the plate was washed three times with 0.05% Tween-20 in PBS. Fifty microliters of alkaline phosphatase substrate solution (alkaline buffer (Sigma, St. Louis, Mo.) diluted 1:500 in deionized water plus one 5 mg tablet of p-nitrophenyl phosphate (Sigma, St. Louis, Mo.) per 5 ml of diluted buffer) was added to all wells and incubation continued for 20 minutes at room temperature. Color development was stopped by adding to all wells 50 μl of 3N sodium hydroxide. The optical density (OD) at 405 nm was measured on a microtiter plate reader (Molecular Devices Vmax plate reader), with the plate blank wells subtracted as background. The activity of each peptide was then expressed as the percent inhibition of TNFα capture by the p55-Ig plate, relative to the amount of TNFα captured in wells containing only assay buffer (negative control), as follows: % inhibition=100-((mean OD peptide/mean OD negative control)×100).
The inhibition of binding of TNFα to p55TNFr-IgG chimeric construct was performed as described above using several embodiments of the invention. The peptides were tested at a concentration of 1 mM.

T1 sequence (P01375 77-233 limits assumed): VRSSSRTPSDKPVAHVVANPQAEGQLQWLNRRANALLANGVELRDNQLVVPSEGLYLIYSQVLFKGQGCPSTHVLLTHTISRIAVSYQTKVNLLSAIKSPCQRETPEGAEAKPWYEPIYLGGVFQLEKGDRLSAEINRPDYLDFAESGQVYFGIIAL

Compound | inhibition at 1000 µM [%] | inhibition of binding of TNFα to p55TNFr-IgG chimeric construct [%] | dose dependent inhibition of TNFα (FIG. 1) (various concentrations of peptide)
SEQ ID NO:34: peptide of the invention that inhibits TNFα; sequence not printed (SDTVADSAEDSTYTQ) |  | 65 | 
CC(C)[C@H](NC(=O)[C@@H](NC(=O)[C@H](CC(=O)O)NC(=O)[C@H](CO)NC(=O)[C@@H](NC(=O)[C@H](CCCCN)NC(=O)[C@@H](N)[C@@H](C)O)[C@@H](C)O)[C@@H](C)O)C(=O)N[C@@H](C)C(=O)N[C@@H](CC(=O)O)C(=O)N[C@@H](CO)C(=O)N[C@@H](C)C(=O)N[C@@H](CCC(=O)O)C(=O)N[C@@H](CC(=O)O)C(=O)N[C@@H](CO)C(=O)N[C@H](C(N)=O)[C@@H](C)O [SEQ ID NO:33] (H-TKTSDTVADSAEDST-NH2) | 67 |  | 
CSCC[C@H](NC(=O)[C@H](CCC(N)=O)NC(=O)[C@H](C)NC(=O)[C@@H](NC(=O)[C@H](CCC(N)=O)NC(=O)[C@H](CC(=O)O)NC(=O)[C@H](Cc1ccc(O)cc1)NC(=O)[C@H](Cc1ccc(O)cc1)NC(=O)[C@H](CCC(=O)O)NC(=O)[C@H](CCCNC(=N)N)NC(=O)[C@H](CC(C)C)NC(=O)[C@H](CCCNC(=N)N)NC(=O)[C@H](C)NC(=O)[C@@H](NC(=O)[C@@H](N)CO)[C@@H](C)O)[C@@H](C)O)C(N)=O [SEQ ID NO:28] (H-STARLREYYDQTAQM-NH2) | 72 |  | 
CC(=O)N[C@@H](C)C(=O)N[C@@H](Cc1ccccc1)C(=O)N[C@@H](CC(N)=O)C(=O)N[C@@H](C)C(=O)N[C@@H](CO)C(=O)N[C@@H](CC(C)C)C(=O)N[C@@H](C)C(=O)N[C@@H](CC(C)C)C(=O)N[C@@H](CC(N)=O)C(=O)NCC(=O)N[C@H](C(=O)N[C@H](C(=O)N[C@@H](Cc1c[nH]cn1)C(=O)N[C@@H](CC(C)C)C(=O)N[C@@H](CO)C(N)=O)C(C)C)[C@@H](C)O [SEQ ID NO:13, Acetyl-alanyl-phenylalanyl-asparaginyl-alanyl-seryl-leucyl-alanyl-leucyl-asparaginyl-glycyl-threonyl-valyl-histidyl-leucyl-serine Amide] (Ac-AFNASLALNGTVHLS-NH2) | 34 |  | 
CC(C)[C@H](NC(=O)[C@H](CCCCN)NC(=O)[C@H](C)NC(=O)[C@@H](N)Cc1c[nH]cn1)C(=O)N[C@@H](Cc1ccccc1)C(=O)N[C@@H](C)C(=O)N[C@H](C(=O)N[C@@H](CCCCN)C(=O)N[C@H](C(=O)N[C@@H](CO)C(=O)N[C@@H](CC(=O)O)C(=O)N[C@H](C(=O)N[C@H](C(=O)N[C@@H](C)C(=O)N[C@@H](CC(=O)O)C(N)=O)C(C)C)[C@@H](C)O)[C@@H](C)O)[C@@H](C)O [SEQ ID NO:31] (H-HAKVFATKTSDTVAD-NH2) | 68 |  | 
SEQ ID NO:45: peptide of the invention that inhibits TNFα; sequence not printed (GTFSNTTSSTDIARP; also: C-terminal blocking group) |  | 73 | dose dependent inhibition
CC(C)C[C@H](NC(=O)[C@H](CCCNC(=N)N)NC(=O)[C@H](C)NC(=O)[C@@H](NC(=O)[C@H](CO)NC(=O)CNC(=O)[C@@H]1CCCN1C(=O)[C@H](CCC(=O)O)NC(=O)[C@@H]1CCCN1C(=O)[C@H](C)NC(=O)[C@H](Cc1ccc(O)cc1)NC(=O)[C@@H]1CCCN1C(=O)[C@@H](NC(=O)[C@@H](N)Cc1ccccc1)[C@@H](C)O)[C@@H](C)O)C(=O)N[C@@H](CCCNC(=N)N)C(N)=O [SEQ ID NO:25] (H-FTPYAPEPGSTARLR-NH2) | 69 |  | 
CC(C)C[C@H](NC(=O)[C@H](Cc1c[nH]cn1)NC(=O)[C@H](CC(N)=O)NC(=O)[C@H](CCC(=O)O)NC(=O)[C@H](CO)NC(=O)[C@H](C)NC(=O)[C@@H](NC(=O)[C@H](Cc1ccccc1)NC(=O)[C@H](CO)NC(=O)CNC(=O)[C@H](CO)NC(=O)[C@H](CCC(=O)O)NC(=O)[C@H](C)NC(=O)[C@@H](N)CCC(=O)O)[C@@H](C)O)C(=O)N[C@@H](CCCNC(=N)N)C(N)=O [SEQ ID NO:6, Glutamyl-alanyl-glutamyl-seryl-glycyl-seryl-phenylalanyl-threonyl-alanyl-seryl-glutamyl-asparaginyl-histidyl-leucyl-arginine Amide] (H-EAESGSFTASENHLR-NH2) | 53 |  | 
SEQ ID NO:44: peptide of the invention that inhibits TNFα; sequence not printed (AAPGTFSNTTSSTDI) |  | 28 | 
CC(=O)N[C@@H](CC(C)C)C(=O)N[C@@H](Cc1ccccc1)C(=O)N[C@@H](CCC(N)=O)C(=O)N[C@@H](C)C(=O)N[C@@H](Cc1ccccc1)C(=O)N[C@@H](CC(N)=O)C(=O)N[C@@H](C)C(=O)N[C@@H](CO)C(=O)N[C@@H](CC(C)C)C(=O)N[C@@H](C)C(=O)N[C@@H](CC(C)C)C(=O)N[C@@H](CC(N)=O)C(=O)NCC(=O)N[C@H](C(=O)N[C@H](C(N)=O)C(C)C)[C@@H](C)O [SEQ ID NO:12, Acetyl-leucyl-phenylalanyl-glutaminyl-alanyl-phenylalanyl-asparaginyl-alanyl-seryl-leucyl-alanyl-leucyl-asparaginyl-glycyl-threonyl-valine Amide] (Ac-LFQAFNASLALNGTV-NH2) | 40 |  | 

Now from value to compound:

inhibition at 1000 µM [%] | inhibition of binding of TNFα to p55TNFr-IgG chimeric construct [%] | dose dependent inhibition of TNFα (FIG. 1) (various concentrations of peptide) | Compound
62 |  |  | CSCC[C@H](NC(=O)[C@@H]1CCCN1C(=O)[C@H](CC(C)C)NC(=O)[C@H](CC(C)C)NC(=O)[C@H](Cc1ccccc1)NC(=O)[C@H](CO)NC(=O)[C@@H](NC(=O)[C@H](CO)NC(=O)[C@@H]1CCCN1C(=O)[C@H](C)N)[C@@H](C)O)C(=O)NCC(=O)N1CCC[C@H]1C(=O)N[C@@H](CO)C(=O)N1CCC[C@H]1C(=O)N1CCC[C@H]1C(N)=O [SEQ ID NO:62] (H-APSTSFLLPMGPSPP-NH2)
 | 63 |  | SEQ ID NO:52: peptide of the invention that inhibits TNFα; sequence not printed (ASRDAVATSTSPTRS)
 | 26 |  | SEQ ID NO:49: peptide of the invention that inhibits TNFα; sequence not printed (ARPHQIANVVAIPGN)
 | 68 |  | SEQ ID NO:51: peptide of the invention that inhibits TNFα; sequence not printed (PGNASRDAVATSTSP)
72 |  |  | CSCC[C@H](NC(=O)[C@@H]1CCCN1C(=O)[C@H](CC(C)C)NC(=O)[C@H](CC(C)C)NC(=O)[C@H](Cc1ccccc1)NC(=O)[C@H](CO)NC(=O)[C@@H](NC(=O)[C@H](CO)NC(=O)[C@@H]1CCCN1C(=O)[C@H](C)NC(=O)[C@@H](NC(=O)[C@H](CO)NC(=O)[C@@H]1CCCN1)[C@@H](C)O)[C@@H](C)O)C(=O)NCC(=O)N1CCC[C@H]1C(N)=O [SEQ ID NO:61] (H-PSTAPSTSFLLPMGP-NH2)
60 |  |  | CC(C)C[C@H](NC(=O)[C@H](Cc1c[nH]cn1)NC(=O)[C@@H](NC(=O)[C@H](C)NC(=O)CN)C(C)C)C(=O)N1CCC[C@H]1C(=O)N[C@@H](CCC(N)=O)C(=O)N1CCC[C@H]1C(=O)N[C@H](C(=O)N[C@@H](CO)C(=O)N[C@H](C(=O)N[C@@H](CCCNC(=N)N)C(=O)N[C@@H](CO)C(=O)N[C@@H](CCC(N)=O)C(=O)N[C@@H](Cc1c[nH]cn1)C(N)=O)[C@@H](C)O)C(C)C [SEQ ID NO:55] (H-GAVHLPQPVSTRSQH-NH2)
